These results are taken from ChEMBL document CHEMBL3784996, “Copper-catalyzed three-component synthesis of aminonaphthoquinone-sulfonylamidine conjugates and in vitro evaluation of their antiproliferative activity” (Bioorg Med Chem Lett, 2016).

By pIC50 is commonly meant the IC50 on a negative log10 scale, so that one unit is a factor of ten. Read a high pIC50 as a low IC50.

In assay [1] the test system is MCF7. Nature of the assay: Cytotoxicity against human MCF7 cells after 48 hrs by MTT assay. Type of assay: functional, cell-based. The note with it: MCF7, 48 h. On the technique in general: Tetrazolium assays rely on reduction of a dye to a coloured formazan, in cell work by metabolically active cells.
Assay [2] in a line: Cytotoxicity against human DU145 cells after 48 hrs by MTT assay. As to conditions: DU-145, 48 h. In kind it is functional, cell-based.
The test system of assay [3] is A549. The assay can be described thus: Cytotoxicity against human A549 cells after 48 hrs by MTT assay. As to conditions: A549, 48 h. Type of assay: functional, cell-based.
Assay [4] has as its system HeLa. Nature of the assay: Cytotoxicity against human HeLa cells after 48 hrs by MTT assay. In kind it is functional, cell-based.
For assay [5], the system named is HEK293. Nature of the assay: Cytotoxicity against HEK293 cells after 48 hrs by MTT assay. Type of assay: cell-based. As to conditions: Homo sapiens, HEK293, 48 h.
The test system of assay [6] is MCF7. Nature of the assay: Induction of cell cycle arrest in human MCF7 cells assessed as accumulation at G0/G1 phase at 5 uM after 48 hrs by propidium iodide staining based flow cytometric analysis (reference value: 62.95 %). Type of assay: functional. In general terms: A flow cytometer gives signals particle by particle.
Assay [7] relates to MCF7. The assay can be described thus: Induction of cell cycle arrest in human MCF7 cells assessed as accumulation at S phase at 2.5 uM after 48 hrs by propidium iodide staining based flow cytometric analysis (reference value: 5.04 %). In kind it is functional.
Assay [8] relates to MCF7. Nature of the assay: Induction of cell cycle arrest in human MCF7 cells assessed as accumulation at sub G1 phase at 2.5 uM after 48 hrs by propidium iodide staining based flow cytometric analysis (reference value: 2.58 %). Type of assay: functional.
Assay [9] has as its system MCF7. The assay can be described thus: Induction of cell cycle arrest in human MCF7 cells assessed as accumulation at G0/G1 phase at 2.5 uM after 48 hrs by propidium iodide staining based flow cytometric analysis (reference value: 62.95 %). In kind it is functional.
In assay [10] the test system is MCF7. Nature of the assay: Induction of cell cycle arrest in human MCF7 cells assessed as accumulation at sub G1 phase at 5 uM after 48 hrs by propidium iodide staining based flow cytometric analysis (reference value: 2.58 %). Type of assay: functional.
In assay [11] the test system is MCF7. Nature of the assay: Induction of cell cycle arrest in human MCF7 cells assessed as accumulation at G2/M phase at 2.5 uM after 48 hrs by propidium iodide staining based flow cytometric analysis (reference value: 28.45 %). Type of assay: functional.
Assay [12] has as its system MCF7. The assay can be described thus: Induction of cell cycle arrest in human MCF7 cells assessed as accumulation at S phase at 5 uM after 48 hrs by propidium iodide staining based flow cytometric analysis (reference value: 5.04 %). In kind it is functional.
Assay [13] has as its system MCF7. Nature of the assay: Induction of cell cycle arrest in human MCF7 cells assessed as accumulation at G2/M phase at 5 uM after 48 hrs by propidium iodide staining based flow cytometric analysis (reference value: 28.45 %). Type of assay: functional.

pIC50: −log10 of the molar value.

Turning to `C#CCNC1=CC(=O)c2ccccc2C1=O`, the pIC50 in [1] was 4.62; in [2], 4.40; in [3], 4.33; in assay [4], 4.51; in assay [5] it was 4.11.
The like results for `Cc1ccc(S(=O)(=O)/N=C(/CCNC2=CC(=O)c3ccccc3C2=O)Nc2cc(F)c(F)c(F)c2)cc1` were, in that order, 5.18, 4.90, 4.99, 5.07 and 4.08.
`Cc1ccc(S(=O)(=O)/N=C(/CCNC2=CC(=O)c3ccccc3C2=O)Nc2ccc(F)c(F)c2)cc1`: the pIC50 in assay [1] is 5.03; in assay [2], 4.89; in [3], 4.78; in [4], 5.06; in assay [5] it was 4.26.
Turning to `Cc1ccc(S(=O)(=O)/N=C(/CCNC2=CC(=O)c3ccccc3C2=O)Nc2ccccc2[N+](=O)[O-])cc1`, the Activity in assay [6] is listed as 68.18%; in assay [7] it was 3.11%; in assay [8] it was 2.5%; in assay [9], 63.91%; in assay [10], 2.6%; in [11], 27.47%. In addition, the Activity in assay [12] stood at 3.09%; in [13], 23.6%. In addition, the pIC50 is 5.51 in assay [1]; 5.12 in [2]; 5.30 in assay [3]; 5.48 in assay [4]; 4.16 in [5].
As for `Cc1ccc(S(=O)(=O)/N=C(/CCNC2=CC(=O)c3ccccc3C2=O)Nc2ccccc2I)cc1`, the pIC50 in assay [1] was 4.81; in assay [2], 4.93; in assay [3] it was 4.61; in assay [4] it was 4.72; in [5], 4.31.
`COc1ccc(N/C(CCNC2=CC(=O)C(C)=C(C)C2=O)=N\S(=O)(=O)c2ccc(C)cc2)cc1OC`: the pIC50 was 5.06 in assay [1]; 4.85 in assay [2]; 4.81 in assay [3]; 4.98 in assay [4]; 4.10 in [5].
Turning to `Cc1ccc(S(=O)(=O)/N=C(\N)CCNC2=CC(=O)c3ccccc3C2=O)cc1`, the pIC50 was 4.73 in assay [1]; 4.51 in assay [2]; 4.57 in [3]; 4.61 in assay [4]; 4.20 in [5].
Turning to `Cc1ccc(S(=O)(=O)/N=C(/CCNC2=CC(=O)c3ccccc3C2=O)Nc2ccc(F)cc2)cc1`, the pIC50 in assay [1] was 5.37; in [2] it was 4.91; in assay [3] it was 5.03; in assay [4], 5.23; in assay [5] it was 4.26.
For `COc1ccc(N/C(CCNC2=CC(=O)c3ccccc3C2=O)=N\S(=O)(=O)c2ccc(C)cc2)cc1` the same measures were 5.22, 4.92, 4.59, 5.12 and 4.45.
Consider `Cc1ccc(S(=O)(=O)/N=C(/CCNC2=CC(=O)c3ccccc3C2=O)Nc2cccc(C(F)(F)F)c2)cc1`, for which the pIC50 in assay [1] was 4.05; in assay [2], 4.08; in assay [3], 4.11; in assay [4], 4.11; in assay [5], 4.04.
`Cc1ccc(S(=O)(=O)/N=C(/CCNC2=CC(=O)c3ccccc3C2=O)Nc2ccc(Cl)cc2Cl)cc1`: the pIC50 in [1] was 4.77; in [2] it was 4.73; in [3], 4.48; in [4], 4.69; in [5], 4.38.
Take `COc1ccc(N/C(CCNC2=C(Br)C(=O)c3ccccc3C2=O)=N\S(=O)(=O)c2ccc(C)cc2)cc1OC`: the pIC50 in [1] was 5.18; in [2], 4.53; in assay [3], 4.76; in [4], 5.27; in [5], 4.45.
As for `Cc1ccc(S(=O)(=O)/N=C(/CCNC2=CC(=O)c3ccccc3C2=O)NCCc2c[nH]c3ccccc23)cc1`, the pIC50 is 5.11 in assay [1]; 4.55 in assay [2]; 4.77 in assay [3]; 5.03 in [4]; 4.37 in [5].
Regarding `Cc1ccc(S(=O)(=O)/N=C(/CCNC2=CC(=O)c3ccccc3C2=O)NC2CCCCC2)cc1`, the pIC50 in assay [1] is 5.12; in [2], 4.78; in assay [3] it was 4.83; in [4] it was 5.01; in assay [5], 4.30.
Turning to `COc1ccc(N/C(CCNC2=CC(=O)c3ccccc3C2=O)=N\S(=O)(=O)c2ccc(C(C)(C)C)cc2)cc1OC`, the pIC50 in [1] is 5.06; in [2], 4.84; in [3] it was 4.79; in [4] it was 4.94; in assay [5], 4.21.
Consider `COc1cc(N/C(CCNC2=CC(=O)c3ccccc3C2=O)=N\S(=O)(=O)c2ccc(C)cc2)cc(OC)c1OC`, for which the Activity in assay [6] amounted to 84.55%; in [7], 4.14%; in [8], 1.86%; in assay [9], 64.17%; in assay [10], 3.01%; in assay [11], 27.51%. For the same molecule, the Activity in assay [12] was found to be 5.19%; in assay [13] it was 5.23%. Moreover, the pIC50 is 5.52 in assay [1]; 5.03 in assay [2]; 5.10 in assay [3]; 5.47 in [4]; 4.12 in assay [5].
Regarding `Cc1ccc(S(=O)(=O)/N=C(/CCNC2=CC(=O)c3ccccc3C2=O)Nc2ccc(Cl)cc2)cc1`, the pIC50 in assay [1] was 5.15; in assay [2], 4.49; in assay [3], 4.52; in assay [4], 4.87; in assay [5] it was 4.18.
For `Cc1ccc(S(=O)(=O)/N=C(/CCNC2=CC(=O)c3ccccc3C2=O)NCc2ccccc2)cc1` the same measures were 5.44, 5.04, 5.13, 5.40 and 4.10.
As for `Cc1ccc(S(=O)(=O)/N=C(/CCNC2=CC(=O)c3ccccc3C2=O)Nc2cccc(C)c2)cc1`, the pIC50 in [1] was 5.09; in [2], 4.99; in [3], 4.73; in assay [4], 5.04; in [5], 4.25.
`COc1ccc(N/C(CCNC2=CC(=O)c3ccccc3C2=O)=N\S(=O)(=O)c2ccc(C)cc2)c(OC)c1`: the pIC50 in assay [1] is 4.52; in [2], 4.17; in assay [3], 3.90; in assay [4] it was 4.17; in [5], 4.08.
As to `Cc1ccc(S(=O)(=O)/N=C(/CCNC2=CC(=O)c3ccccc3C2=O)NC(C)C)cc1`, the pIC50 in assay [1] was 4.78; in assay [2], 4.55; in assay [3], 4.35; in [4] it was 4.52; in [5], 4.14.
Consider `COc1ccc(N/C(CCNC2=CC(=O)c3ccccc3C2=O)=N\S(=O)(=O)c2ccc(C)cc2)cc1OC`, for which the pIC50 was 4.91 in assay [1]; 4.75 in assay [2]; 4.69 in assay [3]; 4.84 in assay [4]; 4.22 in [5].
Turning to `COc1cccc2c1C(=O)c1c(O)c3c(c(O)c1C2=O)C[C@@](O)(C(=O)CO)C[C@@H]3O[C@H]1C[C@H](N)[C@H](O)[C@H](C)O1` [DOXORUBICIN], the figures for the pIC50 in assay [2], in assay [3] and in assay [4] were 5.97, 5.63 and 5.80, respectively.
